From the kinase profiling compilation of Christmann-Franck et al. (2016)
“And” between values parts separate entries of the source, which are not always exact repeats. Equal entries are not always repeated.

Assays:
Experiment in all cases: KINOMEscan competition binding
Conditions in all cases: compound 10.0 µM
BLK (human) = BLK (human) (UniProt P51451)
BMPR1B (human) = BMPR1B (human) (UniProt O00238)
CSNK1G1 (human) = CSNK1G1 (human) (UniProt Q9HCP0)
DCLK1 (human) = DCLK1 (human) (UniProt O15075)
DYRK1B (human) = DYRK1B (human) (UniProt Q9Y463)
[1] = test system: EIF2AK4 KD2 (human), Q9P2K8 [S808G]
EPHA1 (human) = EPHA1 (human) (UniProt P21709)
EPHA8 (human) = EPHA8 (human) (UniProt P29322)
FER (human) = FER (human) (UniProt P16591)
FES (human) = FES (human) (UniProt P07332)
FGFR2 (human) = FGFR2 (human) (UniProt P21802)
FGFR3 (human) = FGFR3 (human) (UniProt P22607)
FLT3 (human) = FLT3 (human) (UniProt P36888)
GAK (human) = GAK (human) (UniProt O14976)
GSK3B (human) = GSK3B (human) (UniProt P49841)
LCK (human) = LCK (human) (UniProt P06239)
MAP2K2 (human) = MAP2K2 (human) (UniProt P36507)
MAP2K4 (human) = MAP2K4 (human) (UniProt P45985)
MAP2K6 (human) = MAP2K6 (human) (UniProt P52564)
MAP3K10 (human) = MAP3K10 (human) (UniProt Q02779)
MAP4K1 (human) = MAP4K1 (human) (UniProt Q92918)
MAPK10 (human) = MAPK10 (human) (UniProt P53779)
MINK1 (human) = MINK1 (human) (UniProt Q8N4C8)
MKNK2 (human) = MKNK2 (human) (UniProt Q9HBH9)
MLTK (human) = MLTK (human) (UniProt Q9NYL2)
NTRK1 (human) = NTRK1 (human) (UniProt P04629)
NTRK3 (human) = NTRK3 (human) (UniProt Q16288)
PAK4 (human) = PAK4 (human) (UniProt O96013)
PAK7 (human) = PAK7 (human) (UniProt Q9P286)
PDGFRA (human) = PDGFRA (human) (UniProt P16234)
PIM2 (human) = PIM2 (human) (UniProt Q9P1W9)
RPS6KA1 KD1 (human) = RPS6KA1 KD1 (human) (UniProt Q15418)
RPS6KA3 KD1 (human) = RPS6KA3 KD1 (human) (UniProt P51812)
SLK (human) = SLK (human) (UniProt Q9H2G2)
SRMS (human) = SRMS (human) (UniProt Q9H3Y6)
STK16 (human) = STK16 (human) (UniProt O75716)
STK32B (human) = STK32B (human) (UniProt Q9NY57)
STK38L (human) = STK38L (human) (UniProt Q9Y2H1)
TAOK3 (human) = TAOK3 (human) (UniProt Q9H2K8)
TTK (human) = TTK (human) (UniProt P33981)

Sequence of FLT3 (human) (P36888 whole entry, looked up): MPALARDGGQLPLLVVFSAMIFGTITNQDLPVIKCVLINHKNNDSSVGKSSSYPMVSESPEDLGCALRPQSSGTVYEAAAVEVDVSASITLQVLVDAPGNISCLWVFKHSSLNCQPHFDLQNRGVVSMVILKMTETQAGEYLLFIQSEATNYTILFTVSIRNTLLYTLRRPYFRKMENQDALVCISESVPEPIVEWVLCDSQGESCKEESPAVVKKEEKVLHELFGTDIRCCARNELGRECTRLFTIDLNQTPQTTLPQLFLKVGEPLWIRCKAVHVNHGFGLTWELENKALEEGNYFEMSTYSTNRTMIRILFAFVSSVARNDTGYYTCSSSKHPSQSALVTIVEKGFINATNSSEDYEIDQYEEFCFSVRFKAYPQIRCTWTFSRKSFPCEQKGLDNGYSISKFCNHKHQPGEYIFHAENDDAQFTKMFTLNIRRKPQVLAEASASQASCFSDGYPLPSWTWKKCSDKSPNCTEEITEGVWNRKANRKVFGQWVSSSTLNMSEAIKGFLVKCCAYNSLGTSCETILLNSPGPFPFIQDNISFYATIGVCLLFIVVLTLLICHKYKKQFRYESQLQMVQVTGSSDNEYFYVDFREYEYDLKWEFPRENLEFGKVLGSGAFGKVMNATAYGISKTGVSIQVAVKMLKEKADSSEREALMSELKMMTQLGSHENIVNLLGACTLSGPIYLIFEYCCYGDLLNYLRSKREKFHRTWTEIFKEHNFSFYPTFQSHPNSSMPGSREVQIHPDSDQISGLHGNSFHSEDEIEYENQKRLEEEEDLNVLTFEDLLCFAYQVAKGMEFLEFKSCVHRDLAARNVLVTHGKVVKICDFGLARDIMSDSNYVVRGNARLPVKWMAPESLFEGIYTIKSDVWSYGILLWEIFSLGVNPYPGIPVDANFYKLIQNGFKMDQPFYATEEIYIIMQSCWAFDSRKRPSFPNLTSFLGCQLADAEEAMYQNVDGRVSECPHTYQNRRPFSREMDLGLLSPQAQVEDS
Sequence of NTRK1 (human) (P04629 whole entry, looked up): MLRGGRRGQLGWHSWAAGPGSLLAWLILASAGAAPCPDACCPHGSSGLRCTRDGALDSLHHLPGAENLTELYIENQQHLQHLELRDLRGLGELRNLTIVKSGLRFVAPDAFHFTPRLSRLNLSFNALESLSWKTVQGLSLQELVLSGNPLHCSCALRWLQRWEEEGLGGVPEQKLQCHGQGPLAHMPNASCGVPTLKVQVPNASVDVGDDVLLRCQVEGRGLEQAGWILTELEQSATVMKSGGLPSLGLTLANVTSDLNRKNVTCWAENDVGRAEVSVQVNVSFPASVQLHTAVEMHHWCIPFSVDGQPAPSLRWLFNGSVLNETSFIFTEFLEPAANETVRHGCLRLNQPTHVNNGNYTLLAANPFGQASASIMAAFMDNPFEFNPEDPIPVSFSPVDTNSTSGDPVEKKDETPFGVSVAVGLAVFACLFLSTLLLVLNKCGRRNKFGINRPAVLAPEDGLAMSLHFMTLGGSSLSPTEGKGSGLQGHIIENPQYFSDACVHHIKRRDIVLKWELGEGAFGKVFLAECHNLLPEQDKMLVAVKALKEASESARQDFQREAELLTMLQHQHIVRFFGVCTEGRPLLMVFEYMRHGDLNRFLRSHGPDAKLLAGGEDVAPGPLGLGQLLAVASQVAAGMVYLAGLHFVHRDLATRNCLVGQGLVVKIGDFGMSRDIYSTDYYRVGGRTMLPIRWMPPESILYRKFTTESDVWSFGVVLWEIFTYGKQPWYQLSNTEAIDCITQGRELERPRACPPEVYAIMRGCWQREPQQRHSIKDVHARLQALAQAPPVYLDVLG
Sequence of GAK (human) (O14976 whole entry, looked up): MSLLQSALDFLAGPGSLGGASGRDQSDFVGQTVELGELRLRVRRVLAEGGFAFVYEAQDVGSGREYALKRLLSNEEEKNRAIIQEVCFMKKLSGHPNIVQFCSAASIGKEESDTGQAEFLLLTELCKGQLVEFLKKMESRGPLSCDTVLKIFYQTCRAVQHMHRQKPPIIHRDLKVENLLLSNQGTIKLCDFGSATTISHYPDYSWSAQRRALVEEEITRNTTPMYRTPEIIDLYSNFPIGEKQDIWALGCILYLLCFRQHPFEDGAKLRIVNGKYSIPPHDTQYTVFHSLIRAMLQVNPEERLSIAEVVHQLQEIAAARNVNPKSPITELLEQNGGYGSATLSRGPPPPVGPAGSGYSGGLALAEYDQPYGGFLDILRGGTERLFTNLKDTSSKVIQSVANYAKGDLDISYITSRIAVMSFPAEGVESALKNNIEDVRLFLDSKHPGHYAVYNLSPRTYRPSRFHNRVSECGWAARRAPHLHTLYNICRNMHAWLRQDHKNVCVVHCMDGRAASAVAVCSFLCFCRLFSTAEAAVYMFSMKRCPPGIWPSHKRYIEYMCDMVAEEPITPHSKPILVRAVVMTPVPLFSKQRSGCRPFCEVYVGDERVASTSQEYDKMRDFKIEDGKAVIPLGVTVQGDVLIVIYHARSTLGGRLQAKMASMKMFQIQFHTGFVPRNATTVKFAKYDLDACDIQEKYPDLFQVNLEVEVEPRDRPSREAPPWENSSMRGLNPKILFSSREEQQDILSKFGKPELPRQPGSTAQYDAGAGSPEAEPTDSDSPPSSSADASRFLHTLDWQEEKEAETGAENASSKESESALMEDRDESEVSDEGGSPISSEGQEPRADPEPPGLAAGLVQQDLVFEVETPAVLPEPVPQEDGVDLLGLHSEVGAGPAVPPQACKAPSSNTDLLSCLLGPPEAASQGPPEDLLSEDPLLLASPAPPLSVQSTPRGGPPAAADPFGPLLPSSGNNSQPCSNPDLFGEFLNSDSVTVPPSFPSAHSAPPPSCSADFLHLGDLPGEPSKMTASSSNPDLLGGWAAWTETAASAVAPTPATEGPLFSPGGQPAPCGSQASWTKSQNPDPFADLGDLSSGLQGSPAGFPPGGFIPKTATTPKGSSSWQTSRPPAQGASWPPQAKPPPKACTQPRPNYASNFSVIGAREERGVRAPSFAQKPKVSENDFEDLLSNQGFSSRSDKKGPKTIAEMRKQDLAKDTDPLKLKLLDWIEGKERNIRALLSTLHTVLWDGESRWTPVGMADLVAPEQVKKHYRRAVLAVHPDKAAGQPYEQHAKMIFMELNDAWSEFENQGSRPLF
Sequence of FGFR3 (human) (P22607 whole entry, looked up): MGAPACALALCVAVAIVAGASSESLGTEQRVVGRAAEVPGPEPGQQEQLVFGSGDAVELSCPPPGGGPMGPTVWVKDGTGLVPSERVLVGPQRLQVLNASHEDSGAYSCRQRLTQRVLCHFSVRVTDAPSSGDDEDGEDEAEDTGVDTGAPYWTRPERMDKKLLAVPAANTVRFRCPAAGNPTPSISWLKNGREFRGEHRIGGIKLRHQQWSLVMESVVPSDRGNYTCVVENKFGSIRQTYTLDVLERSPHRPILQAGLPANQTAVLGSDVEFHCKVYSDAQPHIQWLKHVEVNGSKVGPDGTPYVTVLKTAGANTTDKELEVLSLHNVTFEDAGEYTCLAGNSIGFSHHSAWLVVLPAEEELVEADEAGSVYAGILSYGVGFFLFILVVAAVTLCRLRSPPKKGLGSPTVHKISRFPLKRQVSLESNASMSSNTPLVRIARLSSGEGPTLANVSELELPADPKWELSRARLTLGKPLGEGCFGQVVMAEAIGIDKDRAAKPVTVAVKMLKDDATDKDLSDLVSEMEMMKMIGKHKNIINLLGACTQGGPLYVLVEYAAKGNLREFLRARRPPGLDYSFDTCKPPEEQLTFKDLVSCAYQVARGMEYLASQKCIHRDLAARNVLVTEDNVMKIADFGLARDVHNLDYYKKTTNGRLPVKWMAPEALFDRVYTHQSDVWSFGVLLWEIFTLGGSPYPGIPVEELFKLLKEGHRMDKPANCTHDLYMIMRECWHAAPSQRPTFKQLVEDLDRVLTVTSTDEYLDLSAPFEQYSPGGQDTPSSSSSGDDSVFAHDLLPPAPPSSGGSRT
Sequence of GSK3B (human) (P49841 whole entry, looked up): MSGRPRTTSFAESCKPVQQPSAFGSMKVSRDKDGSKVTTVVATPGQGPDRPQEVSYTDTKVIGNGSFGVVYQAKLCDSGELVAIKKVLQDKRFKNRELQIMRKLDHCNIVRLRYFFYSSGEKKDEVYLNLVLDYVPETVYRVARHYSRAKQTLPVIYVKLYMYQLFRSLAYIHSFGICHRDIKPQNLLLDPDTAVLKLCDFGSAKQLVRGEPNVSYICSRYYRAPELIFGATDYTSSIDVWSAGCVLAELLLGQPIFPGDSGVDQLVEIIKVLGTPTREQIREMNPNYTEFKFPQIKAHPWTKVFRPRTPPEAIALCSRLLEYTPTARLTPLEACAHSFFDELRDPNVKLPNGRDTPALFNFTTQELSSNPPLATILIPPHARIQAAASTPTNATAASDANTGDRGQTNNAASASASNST
Sequence of BMPR1B (human) (O00238 whole entry, looked up): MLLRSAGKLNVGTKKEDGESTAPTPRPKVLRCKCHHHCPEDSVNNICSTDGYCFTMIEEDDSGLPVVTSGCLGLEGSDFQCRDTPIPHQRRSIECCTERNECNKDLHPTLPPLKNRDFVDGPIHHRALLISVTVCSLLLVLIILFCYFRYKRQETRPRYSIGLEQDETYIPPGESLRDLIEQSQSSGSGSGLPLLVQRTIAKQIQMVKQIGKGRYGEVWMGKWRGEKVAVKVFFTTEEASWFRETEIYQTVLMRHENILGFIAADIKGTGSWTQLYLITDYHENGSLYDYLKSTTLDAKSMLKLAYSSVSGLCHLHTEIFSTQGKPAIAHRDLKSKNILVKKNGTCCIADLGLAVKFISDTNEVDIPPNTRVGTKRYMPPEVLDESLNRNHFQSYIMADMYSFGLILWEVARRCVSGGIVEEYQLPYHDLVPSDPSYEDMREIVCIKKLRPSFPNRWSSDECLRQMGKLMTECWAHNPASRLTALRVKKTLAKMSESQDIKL

Question: N#Cc1c(NC(=O)c2cccc3ccccc23)sc2c1CCCC2 was tested. Which kinase still bound, per cent of control (BLK (human)) did it give?
Answer: The kinase still bound, per cent of control was 91%.

Question: And the kinase still bound, per cent of control (BMPR1B (human))?
Answer: Its kinase still bound, per cent of control is 84%.

Question: And the kinase still bound, per cent of control (CSNK1G1 (human))?
Answer: The kinase still bound, per cent of control was 50%.

Question: And the kinase still bound, per cent of control (DCLK1 (human))?
Answer: Its kinase still bound, per cent of control is 100%.

Question: What about the kinase still bound, per cent of control (DYRK1B (human)) of the same compound?
Answer: The kinase still bound, per cent of control was 89%.

Question: And the kinase still bound, per cent of control [1]?
Answer: The kinase still bound, per cent of control was 82%.

Question: What about the kinase still bound, per cent of control (EPHA1 (human)) of the same compound?
Answer: The kinase still bound, per cent of control was 85%.

Question: What about the kinase still bound, per cent of control (EPHA8 (human)) of the same compound?
Answer: Its kinase still bound, per cent of control is 79%.

Question: What about the kinase still bound, per cent of control (FER (human)) of the same compound?
Answer: Its kinase still bound, per cent of control is 92%.

Question: What about the kinase still bound, per cent of control (FES (human)) of the same compound?
Answer: Its kinase still bound, per cent of control is 100%.

Question: What about the kinase still bound, per cent of control (FGFR2 (human)) of the same compound?
Answer: The kinase still bound, per cent of control was 100%.

Question: What about the kinase still bound, per cent of control (FGFR3 (human)) of the same compound?
Answer: Its kinase still bound, per cent of control is 100%.

Question: What about the kinase still bound, per cent of control (FLT3 (human)) of the same compound?
Answer: The kinase still bound, per cent of control was 94% and 87%.

Question: What about the kinase still bound, per cent of control (GAK (human)) of the same compound?
Answer: Its kinase still bound, per cent of control is 67%.

Question: And the kinase still bound, per cent of control (GSK3B (human))?
Answer: Its kinase still bound, per cent of control is 66%.

Question: And the kinase still bound, per cent of control (LCK (human))?
Answer: Its kinase still bound, per cent of control is 85%.

Question: What about the kinase still bound, per cent of control (MAP2K2 (human)) of the same compound?
Answer: The kinase still bound, per cent of control was 100%.

Question: And the kinase still bound, per cent of control (MAP2K4 (human))?
Answer: Its kinase still bound, per cent of control is 94%.

Question: What about the kinase still bound, per cent of control (MAP2K6 (human)) of the same compound?
Answer: The kinase still bound, per cent of control was 100%.

Question: What about the kinase still bound, per cent of control (MAP3K10 (human)) of the same compound?
Answer: Its kinase still bound, per cent of control is 100%.

Question: What about the kinase still bound, per cent of control (MAP4K1 (human)) of the same compound?
Answer: Its kinase still bound, per cent of control is 89%.

Question: And the kinase still bound, per cent of control (MAPK10 (human))?
Answer: The kinase still bound, per cent of control was 0.95%.

Question: What about the kinase still bound, per cent of control (MINK1 (human)) of the same compound?
Answer: Its kinase still bound, per cent of control is 95%.

Question: And the kinase still bound, per cent of control (MKNK2 (human))?
Answer: Its kinase still bound, per cent of control is 92%.

Question: What about the kinase still bound, per cent of control (MLTK (human)) of the same compound?
Answer: Its kinase still bound, per cent of control is 87%.

Question: What about the kinase still bound, per cent of control (NTRK1 (human)) of the same compound?
Answer: Its kinase still bound, per cent of control is 100%.

Question: What about the kinase still bound, per cent of control (NTRK3 (human)) of the same compound?
Answer: Its kinase still bound, per cent of control is 86%.

Question: And the kinase still bound, per cent of control (PAK4 (human))?
Answer: Its kinase still bound, per cent of control is 100%.

Question: What about the kinase still bound, per cent of control (PAK7 (human)) of the same compound?
Answer: The kinase still bound, per cent of control was 100%.

Question: And the kinase still bound, per cent of control (PDGFRA (human))?
Answer: Its kinase still bound, per cent of control is 89%.

Question: And the kinase still bound, per cent of control (PIM2 (human))?
Answer: The kinase still bound, per cent of control was 69%.

Question: What about the kinase still bound, per cent of control (RPS6KA1 KD1 (human)) of the same compound?
Answer: The kinase still bound, per cent of control was 100%.

Question: What about the kinase still bound, per cent of control (RPS6KA3 KD1 (human)) of the same compound?
Answer: The kinase still bound, per cent of control was 100%.

Question: What about the kinase still bound, per cent of control (SLK (human)) of the same compound?
Answer: The kinase still bound, per cent of control was 82%.

Question: What about the kinase still bound, per cent of control (SRMS (human)) of the same compound?
Answer: Its kinase still bound, per cent of control is 84%.

Question: And the kinase still bound, per cent of control (STK16 (human))?
Answer: Its kinase still bound, per cent of control is 89%.

Question: And the kinase still bound, per cent of control (STK32B (human))?
Answer: The kinase still bound, per cent of control was 83%.

Question: What about the kinase still bound, per cent of control (STK38L (human)) of the same compound?
Answer: The kinase still bound, per cent of control was 98%.

Question: And the kinase still bound, per cent of control (TAOK3 (human))?
Answer: Its kinase still bound, per cent of control is 87%.

Question: And the kinase still bound, per cent of control (TTK (human))?
Answer: The kinase still bound, per cent of control was 91%.
